Source: PubChem BioAssay (NCI)
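Cultured in 96-well plates, cells were exposed to test compound for 48 hours across five concentrations. TGI marks complete inhibition of growth.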

Key:
Assay in all cases: NCI tumour cell line growth inhibition, 48 h
SF-539 CNS = system: SF-539 CNS
OVCAR-5 ovarian = system: OVCAR-5 ovarian
SK-MEL-2 melanoma = system: SK-MEL-2 melanoma
K-562 leukemia = system: K-562 leukemia
MCF7 breast = system: MCF7 breast
SK-OV-3 ovarian = system: SK-OV-3 ovarian
SR leukemia = system: SR leukemia
DU-145 prostate = system: DU-145 prostate
HS 578T breast = system: HS 578T breast
RXF 393 renal = system: RXF 393 renal

SMILES | TGI (SF-539 CNS) [µM] | TGI (OVCAR-5 ovarian) [µM] | TGI (SK-MEL-2 melanoma) [µM] | TGI (K-562 leukemia) [µM] | TGI (MCF7 breast) [µM] | TGI (SK-OV-3 ovarian) [µM] | TGI (SR leukemia) [µM] | TGI (DU-145 prostate) [µM] | TGI (HS 578T breast) [µM] | TGI (RXF 393 renal) [µM]
COc1ccc(CNc2cnc3ccc(N)cc3n2)cc1 | > 100 | > 100 | > 100 | > 100 | – | – | – | – | – | –
CN(/N=C1\C(=O)Nc2ccccc21)c1ccccc1 | > 100 | > 100 | > 100 | > 100 | > 100 | > 100 | > 100 | > 100 | > 100 | –
COC(=O)CC(=O)OSc1ccccc1 | 25.5 | > 100 | 97.5 | > 100 | – | 46 | 42 | – | – | 25.3
O=c1[nH]c(NCc2ccncc2)nc2nc[nH]c12 | – | > 100 | > 100 | > 100 | > 100 | > 100 | – | > 100 | > 100 | > 100
COCOc1ccc(C(=O)Oc2cccc3c2OC(C)(C)O3)c(OCOC)c1 | > 100 | > 100 | – | > 100 | > 100 | > 100 | – | > 100 | 86 | > 100
Cc1ccccc1-c1nc2c(N)nc(N)nc2nc1N | > 100 | > 100 | > 100 | > 100 | > 100 | > 100 | > 100 | > 100 | > 100 | –
O=C(c1ccco1)N(C(=O)N1CCCCC1)c1ccccc1 | > 100 | > 100 | > 100 | > 100 | > 100 | > 100 | – | > 100 | > 100 | > 100
c1ccc2c(c1)SCCCS2 | > 100 | > 100 | – | > 100 | > 100 | > 100 | > 100 | > 100 | – | –
C[C@@H]1CC[C@@]2(C)C(C(=O)O)=CCCC2[C@@]1(C)CC(=O)c1ccoc1 (stereo partly drawn) | > 25 | > 25 | > 25 | – | > 25 | > 25 | > 25 | > 25 | > 25 | > 25
O=[N+]([O-])c1ccc(C[P+]2(c3ccccc3)CCCCC2)cc1 | > 100 | > 100 | > 100 | > 100 | – | > 100 | > 100 | – | – | > 100
CC(=O)O[C@@H](c1nccn1Cc1ccccc1)[C@H]1OC(C)(C)O[C@@H]1[C@H]1COC(C)(C)O1 | > 100 | > 100 | > 100 | > 100 | > 100 | – | – | > 100 | > 100 | > 100
COc1ccc(C)cc1N1C(=O)C2ON(Cc3ccc(CC(N)=O)cc3)C(c3c4ccccc4c(Cl)c4ccccc34)C2C1=O (stereo not drawn) | – | 58.5 | 44.5 | > 100 | > 100 | > 100 | 48.6 | 86.5 | > 100 | 33.7
O=c1c2c3c(sc2[nH]c(=S)n1-c1ccccc1)CCCc1ccc([N+](=O)[O-])cc1-3 | – | > 100 | > 100 | 35.3 | > 100 | > 100 | 85.8 | > 100 | > 100 | 38.7
